Measured values as given in the Deep4Chem optical property database.

Test: solvent given as SMILES

In the case of CCCCCCCCCCOc1ccc(C#Cc2ccc(C#Cc3ccc(OCCCCCCCCCC)c(OCCCCCCCCCC)c3)c3nc4c5ccccc5c5ccccc5c4nc23)cc1OCCCCCCCCCC, the absorption maximum (in C1CCOC1) is reported as 461 nm, the absorption maximum (in Cc1ccccc1) is reported as 461 nm and the absorption maximum (in ClCCl) is reported as 461 nm.

For CC(C)(C)c1ccc(-c2nc(-c3ccc(-n4c5ccccc5c5c6oc7ccccc7c6ccc54)cc3)nc(-c3ccc(C(C)(C)C)cc3)n2)cc1, the absorption maximum (in C1CCOC1) was 354.46 nm.

For COC(=O)C(C)NC(=O)CCNc1cccc2ccccc12 (stereo not given), the absorption maximum (in CCO) was 331 nm.

CC1=CC(C)=[N+]2C1=C(c1ccc(I)cc1)c1c(C)cc(C)n1[B-]2(Oc1ccc(Cl)cc1)Oc1ccc(Cl)cc1 gave an absorption maximum (in ClC(Cl)Cl) of 506 nm.

CCN1C(=CC2=C([O-])C(=Cc3sc4ccccc4[n+]3CC)C2=O)Sc2ccccc21 gave an absorption maximum (in CO) of 649 nm, an absorption maximum (in ClC(Cl)Cl) of 669 nm and an absorption maximum (in ClCCl) of 670 nm.

Work on Cc1nc2c(ccc3ccc(O)cc32)oc1=O yielded an absorption maximum (in c1ccccc1) of 370 nm.

Molecule CC[N+]1(CC)CN2C(=N1)C(C(=O)O)=Cc1ccccc12 has an absorption maximum (in CN(C)C=O) of 361 nm and an absorption maximum (in O) of 373 nm.

Cc1cc(O)c(C(C)C)cc1/N=C/c1ccc(O)cc1 showed an absorption maximum (in C1CCCCC1) of 339 nm, an absorption maximum (in C1CCOC1) of 342 nm and an absorption maximum (in C1COCCO1) of 341 nm. For the same molecule, the absorption maximum (in CC#N) was 334 nm, the absorption maximum (in CC(C)(C)O) was 345 nm and the absorption maximum (in CC(C)O) was 340 nm. The absorption maximum (in CCCCCC) was 339 nm, the absorption maximum (in CCCCO) was 340 nm and the absorption maximum (in CCO) was 340 nm. The absorption maximum (in CCOC(C)=O) was 340 nm, the absorption maximum (in CN(C)C=O) was 344 nm and the absorption maximum (in CO) was 341 nm. For the same molecule, the absorption maximum (in CS(C)=O) was 346 nm, the absorption maximum (in ClC(Cl)Cl) was 337 nm and the absorption maximum (in ClCCl) was 335 nm. It also gave an absorption maximum (in O) of 342 nm and an absorption maximum (in OCCO) of 342 nm.

c1ccc2c(c1)[nH]c1c3[nH]c4ccccc4c3c3nsnc3c21 gave an absorption maximum (in CN(C)C=O) of 410 nm, an absorption maximum (in Cc1ccccc1) of 410 nm and an absorption maximum (in ClCCl) of 410 nm.

C#CCOc1ccc(/C=C/C2=[N+]3C(=C(c4ccc(N(CC)CC)cc4)c4c(C)cc(C)n4[B-]3(F)F)C(C)=C2)cc1 gave an absorption maximum (in CO) of 568 nm.

With Cc1c[nH]c(=O)[nH]c1=O the absorption maximum (in CC#N) was 261 nm.

Work on CCCCCCCCCCn1c(-c2cc(-c3nc4ccc(C)cc4n3CCCCCCCCCC)cc(-c3nc4ccc(C)cc4n3CCCCCCCCCC)c2)nc2ccc(C)cc21 yielded an absorption maximum (in ClCCl) of 307.5 nm.

With COc1ccc(C2=[N+]3C(=Nc4c5c6cc(OC)c(OC)c(OC)c6c6cc(C(C)(C)C)ccc6c5c(-c5ccc(OC)cc5)n4[B-]3(F)F)c3c2c2ccc(C(C)(C)C)cc2c2c(OC)c(OC)c(OC)cc32)cc1 the absorption maximum (in Cc1ccccc1) was 745 nm.

Work on Cc1cc(C)c(B(c2c(C)cc(C)cc2C)c2c(C)cc(N3c4ccccc4Oc4ccccc43)cc2C)c(C)c1 yielded an absorption maximum (in Cc1ccccc1) of 399 nm.

COc1ccccc1C1=[N+]2C(=Cc3c4c(c(-c5ccccc5OC)n3[B-]2(F)F)C2CCC4CC2)C2=C1C1CCC2CC1 showed an absorption maximum (in ClCCl) of 550 nm.

Molecule CCCCCCCCCCCn1cccc1C1=[N+]2C(=Cc3c(C)cc(C)n3[B-]2(F)F)c2ccccc21 has an absorption maximum (in C1CCOC1) of 584 nm, an absorption maximum (in CC#N) of 577 nm and an absorption maximum (in CCCCCC) of 583 nm. The absorption maximum (in CO) was 579 nm, the absorption maximum (in Cc1ccccc1) was 590 nm and the absorption maximum (in ClCCl) was 584 nm.

Work on F[B-]1(F)n2c(-c3cccs3)cc(-c3ccccc3)c2N=C2C(c3ccccc3)=CC(c3cccs3)=[N+]21 yielded an absorption maximum (in CC#N) of 710 nm and an absorption maximum (in ClCCl) of 718 nm.

In the case of CCOC(=O)c1cc2ccc3ccccc3c2c(C(=O)OCC)c1N, the absorption maximum (in Cc1ccccc1) is reported as 427 nm.

With CC1(C)c2ccccc2N(c2ccc3c(c2)c2cc(N4c5ccccc5C(C)(C)c5ccccc54)ccc2c2nc(C#N)c(C#N)nc32)c2ccccc21 the absorption maximum (in Cc1ccccc1) was 464 nm.

Molecule C(#Cc1nc2ccccc2s1)c1ccc(N(c2ccccc2)c2ccccc2)cc1 has an absorption maximum (in Cc1ccccc1) of 388 nm.

Cc1cc(-c2ccc(-c3nc4ccccc4[nH]3)cc2)ccc1-c1ccc(-c2nc3ccccc3[nH]2)cc1 gave an absorption maximum (in CN(C)C=O) of 330 nm.

For Cc1cc(C)c(C2=C3C=C(/C=C/C(=O)OC(C)(C)C)C=[N+]3[B-](F)(F)n3cccc32)c(C)c1, the absorption maximum (in ClCCl) was 538 nm.

COC(=O)c1cc(=O)n(C)c2cc(-c3ccc(N4CCN(C)CC4)cc3)sc12 showed an absorption maximum (in CC#N) of 418 nm and an absorption maximum (in ClCCl) of 420 nm.

Molecule CCCCCCOc1cc(/C=C/c2cc(OCCCCCC)c(/C=C/c3cc(OCCCCCC)c(C=C(C#N)C#N)cc3OCCCCCC)cc2OCCCCCC)c(OCCCCCC)cc1C=C(C#N)C#N has an absorption maximum (in ClCCl) of 518 nm.

Molecule c1ccc(-c2ccc(-c3ccc(N(c4ccccc4)c4ccccc4)cc3)c3nsnc23)cc1 has an absorption maximum (in C1CCOC1) of 437 nm, an absorption maximum (in CC(C)=O) of 424 nm and an absorption maximum (in CCCCCC) of 438 nm. It also gave an absorption maximum (in CCOCC) of 435 nm.

Work on COc1ccc(C2=Cc3cc4ccccc4cc3P2(=O)c2ccccc2)cc1 (stereo not given) yielded an absorption maximum (in ClCCl) of 395 nm.

In the case of CCCCC1(c2ccccc2)Nc2ccccc2N=C1c1ccccc1 (stereo not given), the absorption maximum (in ClC(Cl)Cl) is reported as 386 nm.

CCN(CC)c1ccc(/N=N/c2cc3c(=O)[nH][nH]c(=O)c3cc2[N+](=O)[O-])c(NC(C)=O)c1 showed an absorption maximum (in CC(=O)O) of 532 nm, an absorption maximum (in CN(C)C=O) of 518 nm and an absorption maximum (in CS(C)=O) of 519 nm.

O=C1C(=c2c(=O)c3c4ccccc4cc4cc5ccccc5c2c43)C(=O)c2ccccc21 showed an absorption maximum (in ClCCl) of 518.56 nm.

Work on CCOc1cc(C=C2c3ccccc3-c3ccccc32)c(OCC)cc1C=C1c2ccccc2C=Cc2ccccc21 yielded an absorption maximum (in C1CCOC1) of 395 nm.

O=c1c2ccccc2nc2ccc(-c3ccc(-c4ccc(N(c5ccccc5)c5ccccc5)cc4)cc3)cn12 showed an absorption maximum (in ClCCl) of 362 nm.

Work on c1ccc(-c2nc(-c3ccc(N4c5ccccc5Sc5ccccc54)cc3)nn2-c2ccc(N3c4ccccc4Sc4ccccc43)cc2)nc1 yielded an absorption maximum (in ClCCl) of 377 nm.

Nc1ccc2c3c(cccc13)C(=O)c1ccccc1-2 gave an absorption maximum (in CO) of 514.14 nm.

In the case of Cc1ccc(C2=[N+]3C(=Nc4c5ccccc5c(-c5ccc(C)s5)n4[B-]3(F)F)c3ccccc32)s1, the absorption maximum (in ClCCl) is reported as 793 nm.

In the case of CC(C)(C)c1cccc2c(O)cccc12, the absorption maximum (in O) is reported as 296 nm.

For O=C(O)CCCCCn1c2ccccc2c(=O)c2cc(Br)ccc21, the absorption maximum (in O) was 439 nm.

Molecule CCCCc1cc(-c2cccc(COC)c2)oc1-c1cccc(-c2cc(CCCC)c(-c3cccc(-c4cc(CCCC)c(-c5cccc(-c6oc(-c7cccc(-c8oc(-c9cccc(-c%10oc(-c%11cccc(COC)c%11)cc%10CCCC)c9)cc8CCCC)c7)cc6CCCC)c5)o4)c3)o2)c1 has an absorption maximum (in ClC(Cl)Cl) of 337 nm.

COc1ccc2nc(N)sc2c1 gave an absorption maximum (in CC#N) of 305 nm and an absorption maximum (in ClCCl) of 305 nm.

For c1ccc2c(c1)ccc1ccc3ccc4ccc5ccccc5c4c3c12, the absorption maximum (in ClCCl) was 435 nm.

In the case of CC(C)(C)c1cc2ccc3cc(C(C)(C)C)cc4c3c2c(c1)c(=O)n1c4nc2c3ccccc3c3ccccc3c21, the absorption maximum (in C1CCOC1) is reported as 354 nm, the absorption maximum (in CC#N) is reported as 365 nm and the absorption maximum (in CC(C)=O) is reported as 365 nm. For the same molecule, the absorption maximum (in CCCCCC) was 367 nm, the absorption maximum (in CCO) was 366 nm and the absorption maximum (in CCOC(C)=O) was 366 nm. The absorption maximum (in CO) was 362 nm, the absorption maximum (in CS(C)=O) was 368 nm and the absorption maximum (in Cc1ccc(C)cc1) was 368 nm. The absorption maximum (in ClC(Cl)(Cl)Cl) was 369 nm, the absorption maximum (in ClC(Cl)Cl) was 368 nm and the absorption maximum (in c1ccccc1) was 369 nm.

c1cc2c3c(c1)-c1ccc4c5c(ccc(c15)B3c1ccc3c5c(ccc-2c15)CC3)CC4 showed an absorption maximum (in Cc1ccccc1) of 495 nm.

With CN(C)c1ccc(/C=C/c2cnccn2)cc1 the absorption maximum (in ClCCl) was 389 nm.

COC(=O)[C@@H]1C(=O)Oc2ccccc2[C@H]1c1c[nH]c2ccccc12 showed an absorption maximum (in CS(C)=O) of 284 nm.

Work on c1ccc2c(c1)Sc1ccccc1N2c1ccc2c(c1)C1(CCCC1)c1cc(N3c4ccccc4Sc4ccccc43)ccc1-2 yielded an absorption maximum (in Cc1ccccc1) of 308 nm.

Work on COC(=O)c1cc2c(cc3ccc4cccc5ccc2c3c45)[nH]1 yielded an absorption maximum (in C1CCOC1) of 400 nm.

For CCCCn1c2ccccc2c2cc(C#Cc3ccc4ccc5cccc6ccc3c4c56)ccc21, the absorption maximum (in ClCCl) was 402 nm.

In the case of CC(C)(C)C1Nc2ccccc2C(=O)N1c1ccccc1 (stereo not given), the absorption maximum (in CC#N) is reported as 348 nm, the absorption maximum (in CCCCCCCCCCCCCCCC) is reported as 337 nm and the absorption maximum (in CO) is reported as 356 nm. It also gave an absorption maximum (in ClC(Cl)Cl) of 344 nm and an absorption maximum (in c1ccccc1) of 343 nm.

With CC(C)(C)c1ccc2c(c1)c1cc3c4cc(C(C)(C)C)ccc4c4c5c6ccc(C(C)(C)C)cc6c6cc7c8cc(C(C)(C)C)ccc8c8c2c1c(c34)c(c78)c65 the absorption maximum (in CCCCCC) was 542.15 nm, the absorption maximum (in CCOCC) was 541.57 nm and the absorption maximum (in Cc1ccccc1) was 545.85 nm.

For CC(C)[Si](C#Cc1c2nc3ccccc3nc2c(C#C[Si](C(C)C)(C(C)C)C(C)C)c2nc3c(ccc4cc5ccccc5cc43)nc12)(C(C)C)C(C)C, the absorption maximum (in CCCCCC) was 638 nm.

In the case of Nc1nc2ccc([N+](=O)[O-])cc2s1, the absorption maximum (in CC#N) is reported as 355 nm and the absorption maximum (in ClCCl) is reported as 346 nm.

Work on CC(C)[Si](C#Cc1c2ccccc2c(C#C[Si](C(C)C)(C(C)C)C(C)C)c2nc3ccccc3nc12)(C(C)C)C(C)C yielded an absorption maximum (in CCCCCC) of 570 nm and an absorption maximum (in ClCCl) of 570 nm.

In the case of CN(C)c1ccc2[c](c1)[Ge]([CH3])([CH3])[C]1=CC(=[N+](C)C)C=CC1=C2, the absorption maximum (in O) is reported as 621 nm.

CCCCN(CCCC)c1ccc2c(c1)C#CC#Cc1cc(C(F)(F)F)ccc1C#Cc1cc(c3cc1C#Cc1ccc(C(F)(F)F)cc1C#CC#Cc1cc(N(CCCC)CCCC)ccc1C#C3)C#C2 showed an absorption maximum (in ClCCl) of 474 nm.

CC(=O)c1cc2c(cc1F)NC(C)(C)CC2=O gave an absorption maximum (in CC#N) of 352 nm.

CN(C)c1ccc(C2=Nc3sc4c(F)c(F)c(F)c(F)c4[n+]3[B-](F)(F)O2)cc1 showed an absorption maximum (in C1CCOC1) of 434 nm, an absorption maximum (in CC#N) of 431 nm and an absorption maximum (in Cc1ccccc1) of 431 nm. The absorption maximum (in ClCCl) was 433 nm.

COc1ccc(C2=Cc3ccccc3P2(=O)c2ccccc2)cc1 (stereo not given) showed an absorption maximum (in C1CCOC1) of 362 nm and an absorption maximum (in ClCCl) of 365 nm.

O=C(c1ccncc1)c1ccc(-n2c3ccccc3c3cc(-n4c5ccccc5c5ccccc54)ccc32)cc1 showed an absorption maximum (in C1CCOC1) of 342.64 nm, an absorption maximum (in CCCCCC) of 342.64 nm and an absorption maximum (in Cc1ccccc1) of 362 nm. For the same molecule, the absorption maximum (in ClCCl) was 342.64 nm.

CN(C)c1ccc(-c2cc(-c3ccc(C#N)cc3)nc(-c3ccccc3)n2)cc1 showed an absorption maximum (in ClC(Cl)Cl) of 376 nm.
